Results published in patent US11014934B2, “Antiseptic drug” (AO “TATKHIMFARMPREPARATY”, priority 2017, dated 2021).
Read-outs that look alike come from different tables or passages of the source.

Assays:
Assay in all cases: MIC, serial dilutions in Müller-Hinton broth
Format in all cases: cell-based
E. faecium 30 = test system: E. faecium 30
How it was run: (§1)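 Broth microdilution in Müller-Hinton broth following MUK 4.2.1890-04, with two-fold compound dilutions at final 1-128 ug/ml. The inoculum was set to 0.5 McFarland and diluted to 10^7 CFU/ml before addition, then plates were incubated at 37° C. for 24 hours. MIC was the lowest concentration without visible growth, taking the highest of three independent runs.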

Enterobacter spp. 16 = test system: Enterobacter spp. 16
How it was run: as §1

S. haemoliticus 837 MRSA = test system: S. haemoliticus 837 MRSA
How it was run: as §1

Klebsiella spp. 10 = test system: Klebsiella spp. 10
How it was run: as §1

Moraxella sp. 764 = test system: Moraxella sp. 764
How it was run: as §1

Kl. pneumoniae 1435 PR = test system: Kl. pneumoniae 1435 PR
How it was run: as §1

A. baumannii 1425 PR = test system: A. baumannii 1425 PR
How it was run: as §1

S. aureus 1053a = test system: S. aureus 1053a
How it was run: as §1

E. faecalis 3060 = test system: E. faecalis 3060
How it was run: as §1

S. intermedius 1143 MRSA = test system: S. intermedius 1143 MRSA
How it was run: as §1

S. epidermidis 15990 = test system: S. epidermidis 15990
How it was run: as §1

Kl. pneumoniae 1781 = test system: Kl. pneumoniae 1781
How it was run: as §1

Kl. pneumoniae 1812 PR = test system: Kl. pneumoniae 1812 PR
How it was run: as §1

S. aureus 2020 MRSA = test system: S. aureus 2020 MRSA
How it was run: as §1

Acinetobacter spp. 3 = test system: Acinetobacter spp. 3
How it was run: as §1

E. faecium 32 = test system: E. faecium 32
How it was run: as §1

E. faecalis 3051 = test system: E. faecalis 3051
How it was run: as §1

Pseudomonas spp.6 = conditions: inoculum 10^7 CFU/ml
How it was run: as §1

S. aureus 1053 MRSA = test system: S. aureus 1053 MRSA
How it was run: as §1

Acinetobacter spp. 1 = test system: Acinetobacter spp. 1
How it was run: as §1

S. aureus 1167 MRSA = test system: S. aureus 1167 MRSA
How it was run: as §1

Moraxella sp. 723 = test system: Moraxella sp. 723
How it was run: as §1

Q: With `CCCCCCCCCCCC[N+](C)(C)Cc1cnc(C[N+](C)(C)CCCCCCCCCCCC)c2c1COC(CC)O2` (stereo not drawn) [Compound I, 5,8-(Bis(methylene (N, N-dimethyl-N-dodecylammonium))-2-ethyl-4H-[1,3]dioxino [4,5-c]pyridiniumdichloride] as the molecule, how does the MIC (E. faecium 30; Enterococcus faecium, E. faecium 30, inoculum 10^7 CFU/ml, read-out: MIC) read?
A: The MIC was 0.03 µg/mL.

Q: What about the MIC (Enterobacter spp. 16; Enterobacter spp. 16, inoculum 10^7 CFU/ml, read-out: MIC) of the same molecule?
A: Its MIC is 8 µg/mL.

Q: What about the MIC (S. haemoliticus 837 MRSA; S. haemoliticus 837 MRSA, inoculum 10^7 CFU/ml, read-out: MIC) of the same molecule?
A: Its MIC is 8 µg/mL.

Q: What about the MIC (Klebsiella spp. 10; Klebsiella spp. 10, inoculum 10^7 CFU/ml, read-out: MIC) of the same molecule?
A: The MIC was 8 µg/mL.

Q: And the MIC (Moraxella sp. 764; Moraxella sp. 764, inoculum 10^7 CFU/ml, read-out: MIC)?
A: The MIC was 8 µg/mL.

Q: And the MIC (Kl. pneumoniae 1435 PR; Klebsiella pneumoniae, Kl. pneumoniae 1435 PR, inoculum 10^7 CFU/ml, read-out: MIC)?
A: The MIC was 32 µg/mL.

Q: And the MIC (A. baumannii 1425 PR; Acinetobacter baumannii, A. baumannii 1425 PR, inoculum 10^7 CFU/ml, read-out: MIC)?
A: Its MIC is 8 µg/mL.

Q: And the MIC (S. aureus 1053a; Staphylococcus aureus, S. aureus 1053a, inoculum 10^7 CFU/ml, read-out: MIC)?
A: The MIC was 2 µg/mL.

Q: And the MIC (E. faecalis 3060; Enterococcus faecalis, E. faecalis 3060, inoculum 10^7 CFU/ml, read-out: MIC)?
A: Its MIC is 1 µg/mL.

Q: And the MIC (S. intermedius 1143 MRSA; S. intermedius 1143 MRSA, inoculum 10^7 CFU/ml, read-out: MIC)?
A: Its MIC is 4 µg/mL.

Q: What about the MIC (S. epidermidis 15990; Staphylococcus epidermidis, S. epidermidis 15990, inoculum 10^7 CFU/ml, read-out: MIC) of the same molecule?
A: The MIC was 4 µg/mL.

Q: And the MIC (Kl. pneumoniae 1781; Klebsiella pneumoniae, Kl. pneumoniae 1781, inoculum 10^7 CFU/ml, read-out: MIC)?
A: Its MIC is 2 µg/mL.

Q: And the MIC (Kl. pneumoniae 1812 PR; Klebsiella pneumoniae, Kl. pneumoniae 1812 PR, inoculum 10^7 CFU/ml, read-out: MIC)?
A: The MIC was 64 µg/mL.

Q: And the MIC (S. aureus 2020 MRSA; Staphylococcus aureus, S. aureus 2020 MRSA, inoculum 10^7 CFU/ml, read-out: MIC)?
A: Its MIC is 4 µg/mL.

Q: What about the MIC (Acinetobacter spp. 3; Acinetobacter spp. 3, inoculum 10^7 CFU/ml, read-out: MIC) of the same molecule?
A: Its MIC is 8 µg/mL.

Q: And the MIC (E. faecium 32; Enterococcus faecium, E. faecium 32, inoculum 10^7 CFU/ml, read-out: MIC)?
A: Its MIC is 0.03 µg/mL.

Q: And the MIC (E. faecalis 3051; Enterococcus faecalis, E. faecalis 3051, inoculum 10^7 CFU/ml, read-out: MIC)?
A: Its MIC is 4 µg/mL.

Q: What about the MIC (Pseudomonas spp.6; read-out: MIC) of the same molecule?
A: Its MIC is 16 µg/mL.

Q: What about the MIC (S. aureus 1053 MRSA; Staphylococcus aureus, S. aureus 1053 MRSA, inoculum 10^7 CFU/ml, read-out: MIC) of the same molecule?
A: Its MIC is 2 µg/mL.

Q: What about the MIC (Acinetobacter spp. 1; Acinetobacter spp. 1, inoculum 10^7 CFU/ml, read-out: MIC) of the same molecule?
A: The MIC was 16 µg/mL.

Q: And the MIC (S. aureus 1167 MRSA; Staphylococcus aureus, S. aureus 1167 MRSA, inoculum 10^7 CFU/ml, read-out: MIC)?
A: Its MIC is 4 µg/mL.

Q: What about the MIC (Moraxella sp. 723; Moraxella sp. 723, inoculum 10^7 CFU/ml, read-out: MIC) of the same molecule?
A: The MIC was 4 µg/mL.

Q: How did the MIC (E. faecium 30; Enterococcus faecium, 30) turn out when `CCCCCCCCCCCCCC(=O)NCCC[N+](C)(C)Cc1ccccc1.O.[Cl-]` [Miramistin, benzyldimethyl [3-(myristoylamino)propyl]-ammonium chloride monohydrate] was run?
A: The MIC was under 0.5 µg/mL.

Q: What about the MIC (Enterobacter spp. 16; Enterobacter, SPP.16) of the same molecule?
A: Its MIC is 64 µg/mL.

Q: What about the MIC (S. haemoliticus 837 MRSA) of the same molecule?
A: The MIC was 64 µg/mL.

Q: What about the MIC (Klebsiella spp. 10; Klebsiella, SPP.10) of the same molecule?
A: The MIC was 64 µg/mL.

Q: And the MIC (Moraxella sp. 764; Moraxella, SP.764)?
A: Its MIC is 64 µg/mL.

Q: And the MIC (Kl. pneumoniae 1435 PR; Klebsiella pneumoniae, 1435PR)?
A: The MIC was 64 µg/mL.

Q: What about the MIC (A. baumannii 1425 PR; Acinetobacter baumannii, 1425PR) of the same molecule?
A: The MIC was 64 µg/mL.

Q: And the MIC (S. aureus 1053a; Staphylococcus aureus, 1053A)?
A: Its MIC is 4 to 8 µg/mL.

Q: And the MIC (E. faecalis 3060; Enterococcus faecalis, 3060)?
A: Its MIC is 8 µg/mL.

Q: What about the MIC (S. intermedius 1143 MRSA) of the same molecule?
A: The MIC was 8 µg/mL.

Q: What about the MIC (S. epidermidis 15990; Staphylococcus epidermidis, 15990) of the same molecule?
A: The MIC was 8 µg/mL.

Q: What about the MIC (Kl. pneumoniae 1781; Klebsiella pneumoniae, 1781) of the same molecule?
A: The MIC was 64 µg/mL.

Q: And the MIC (Kl. pneumoniae 1812 PR; Klebsiella pneumoniae, 1812PR)?
A: Its MIC is 64 µg/mL.

Q: What about the MIC (S. aureus 2020 MRSA; Staphylococcus aureus, MRSA) of the same molecule?
A: The MIC was 8 µg/mL.

Q: And the MIC (Acinetobacter spp. 3; Acinetobacter, SPP.3)?
A: Its MIC is 64 µg/mL.

Q: And the MIC (E. faecium 32; Enterococcus faecium, 32)?
A: The MIC was under 0.5 µg/mL.

Q: What about the MIC (E. faecalis 3051; Enterococcus faecalis, 3051) of the same molecule?
A: Its MIC is 2 µg/mL.

Q: And the MIC (Pseudomonas spp.6; read-out: MIC)?
A: Its MIC is over 64 µg/mL.

Q: And the MIC (S. aureus 1053 MRSA; Staphylococcus aureus, MRSA)?
A: The MIC was 4 µg/mL.

Q: And the MIC (Acinetobacter spp. 1; Acinetobacter, SPP.1)?
A: Its MIC is 64 µg/mL.

Q: What about the MIC (S. aureus 1167 MRSA; Staphylococcus aureus, MRSA) of the same molecule?
A: The MIC was 4 µg/mL.

Q: What about the MIC (Moraxella sp. 723; Moraxella, SP.723) of the same molecule?
A: The MIC was 32 µg/mL.

Q: “alkyldimethyl(phenylmethyl) ammonium chloride [Benzalconium chloride]” was tested. Which MIC (E. faecium 30; E. faecium 30, inoculum 10^7 CFU/ml) did it give?
A: Its MIC is under 0.5 µg/mL.

Q: What about the MIC (Enterobacter spp. 16; Enterobacter spp. 16, inoculum 10^7 CFU/ml) of the same molecule?
A: Its MIC is 4 µg/mL.

Q: What about the MIC (S. haemoliticus 837 MRSA; S. haemoliticus 837 MRSA, inoculum 10^7 CFU/ml) of the same molecule?
A: Its MIC is 16 µg/mL.

Q: And the MIC (Klebsiella spp. 10; Klebsiella spp. 10, inoculum 10^7 CFU/ml)?
A: Its MIC is 1 µg/mL.

Q: What about the MIC (Moraxella sp. 764; Moraxella sp. 764, inoculum 10^7 CFU/ml) of the same molecule?
A: The MIC was 4 µg/mL.

Q: What about the MIC (Kl. pneumoniae 1435 PR; Kl. pneumoniae 1435 PR, inoculum 10^7 CFU/ml) of the same molecule?
A: The MIC was 32 µg/mL.

Q: And the MIC (A. baumannii 1425 PR; A. baumannii 1425 PR, inoculum 10^7 CFU/ml)?
A: Its MIC is 32 µg/mL.

Q: And the MIC (S. aureus 1053a; S. aureus 1053a, inoculum 10^7 CFU/ml)?
A: The MIC was 1 µg/mL.

Q: What about the MIC (E. faecalis 3060; E. faecalis 3060, inoculum 10^7 CFU/ml) of the same molecule?
A: Its MIC is 4 µg/mL.

Q: And the MIC (S. intermedius 1143 MRSA; S. intermedius 1143 MRSA, inoculum 10^7 CFU/ml)?
A: The MIC was 4 µg/mL.

Q: What about the MIC (S. epidermidis 15990; S. epidermidis 15990, inoculum 10^7 CFU/ml) of the same molecule?
A: Its MIC is 1 µg/mL.

Q: And the MIC (Kl. pneumoniae 1781; Kl. pneumoniae 1781, inoculum 10^7 CFU/ml)?
A: The MIC was 16 µg/mL.

Q: And the MIC (Kl. pneumoniae 1812 PR; Kl. pneumoniae 1812 PR, inoculum 10^7 CFU/ml)?
A: Its MIC is 64 µg/mL.

Q: What about the MIC (S. aureus 2020 MRSA; S. aureus 2020 MRSA, inoculum 10^7 CFU/ml) of the same molecule?
A: Its MIC is 4 µg/mL.

Q: What about the MIC (Acinetobacter spp. 3; Acinetobacter spp. 3, inoculum 10^7 CFU/ml) of the same molecule?
A: Its MIC is 4 µg/mL.

Q: And the MIC (E. faecium 32; E. faecium 32, inoculum 10^7 CFU/ml)?
A: The MIC was under 0.5 µg/mL.

Q: And the MIC (E. faecalis 3051; E. faecalis 3051, inoculum 10^7 CFU/ml)?
A: Its MIC is 2 µg/mL.

Q: And the MIC (Pseudomonas spp.6)?
A: Its MIC is 16 µg/mL.

Q: And the MIC (S. aureus 1053 MRSA; S. aureus 1053 MRSA, inoculum 10^7 CFU/ml)?
A: The MIC was 4 µg/mL.

Q: And the MIC (Acinetobacter spp. 1; Acinetobacter spp. 1, inoculum 10^7 CFU/ml)?
A: Its MIC is over 64 µg/mL.

Q: And the MIC (S. aureus 1167 MRSA; S. aureus 1167 MRSA, inoculum 10^7 CFU/ml)?
A: Its MIC is 2 µg/mL.

Q: What about the MIC (Moraxella sp. 723; Moraxella sp. 723, inoculum 10^7 CFU/ml) of the same molecule?
A: Its MIC is 4 µg/mL.
